“Also recorded” adds a separate entry of the source. Read-outs that look alike come from different tables or passages of the source.
Key:
[1] = molecular target: hpMR1 (UniProt C1ITJ8+Q95460); details: tandem mass spectrometry; hpMR1-bac, +EC, +MS
Method: MR1 expressed in cells infected with two distinct microbes recognized by MR1Ts, E. coli and M. smegmatis, were analyzed by flow cytometry, ELISPOT assay, and mass spectrometry.
The presence and relative abundance of known MR1T ligands was assessed.
To further explore the MR1 ligandome, all ligands eluted from hpMR1-bac, +EC, and +MS were evaluated using LCMS. Fold increase was calculated for each ion/ligand in either hpMR1+MS or +EC compared to all other samples and plotted on volcano plots (FIG. 2A).
Global Natural Products Social Molecular Networking (GNPS) was used to assist in the identification of these novel ligands.

[2] = tested on: MR1T cell clone D426 G11; details: literature (Harriff 2016; Eckle 2014); cited from earlier work
[3] = molecular target: MR1 (Homo sapiens, UniProt Q95460); experiment: Binding of small molecule ligands to MR1
Source text: 6,7-dimethyl-5-deazalumazine (DZ) is a synthetic compound designed based on the structure and activity of FO and other known mycobacterial ligands for MR1. […] Photolumazines I and III are small molecule secondary metabolites produced by bacteria.
Binding can be detected by any procedure known to one skilled in the art, such as by physical or functional properties including cellular properties. Binding can also be detected by visualization of a label (such as a fluorescent label) conjugated to one of the molecules.
Disclosed herein is work reflecting the diversity of ligands bound by MR1 in the context of infection with different microbes. MR1 ligand diversity is detected by MR1T cells, as MR1 tetramers loaded with multiple bacterial ligands were broadly recognized by MR1T clones with distinct TCR arrangements and by PBMC from a panel of donors. […] While previous work has only identified a few riboflavin metabolites as activating MR1Ts, our results establishes that MR1 samples the broader microbial metabolome similar to how conventional MHC molecules sample the microbial peptidome and CD1 molecules sample microbial lipids and glycolipids.

[4] = tested on: MR1T clones; experiment: Ability of synthetic ligands to stimulate MR1T clones; assay type: cell-based, human
Method: (§1) To determine whether riboflavin, FO, PLI, and PLIII were antigens, they were tested for their ability to stimulate MR1T clones. […] (FIGS. 4A, 4B). […] To determine whether riboflavin or FO are also antagonistic, antigen presenting cells (APC) were pre-loaded with riboflavin or FO and then tested for their ability to present antigens from M. smegmatis supernatant (Msm-sup) to MR1Ts. […] PLI and PLIII were each tested for their ability to stimulate two MR1T clones with distinct TCRs.
(§2) FIGS. 4A, 4B, 4C, 4D: MR1T cell responses to synthetic ligands. A-B) MR1T cell clone D426 G11 responses to BEAS-2B cells incubated with FO (A, 10 μM, 30 μM, or 100 μM), or Riboflavin (B, 7.8 μM-500 μM) prior to addition of M. smegmatis supernatant (Msm-s) or PHA. C) MR1 cell clone D481 C7 responses to DC incubated with synthetic PLI, PLIII, RL-6,7,-diMe (DMRL), or RL-6-Me-7-OH (HMRL), at 1.56μM-200μM, or M. smegmatis (Msm), M. smegmatis supernatant (Msm-s), or PHA. D) Panel of MR1T cell clones or an HLA-B45-restricted T cell clone (D466 A10) incubated with 100 μM PLI, PLIII, DMRL, or HMRL.

[5] = tested on: MR1T cell clone D426 G11; experiment: Blocking of MR1T clone response to M. smegmatis supernatant after pre-loading antigen presenting cells; assay type: cell-based, human; details: for blocking of MR1T clone response to Msm-sup (MAIT cell activation): APC (BEAS-2B) pre-loaded with FO 10-100 μM or riboflavin 7.8-500 μM, then M. smegmatis supernatant
Method: as §1, §2

[6] = tested on: MR1T clone D481_C7; experiment: MR1T cell clone D481 C7 responses to DC incubated with synthetic ligands; assay type: cell-based, human; details: for response of clone D481_C7: 100 μM ligand (FIG. 4D); for IFN-γ response of clone D481_C7: DC incubated with ligand at 1.56 μM-200 μM (FIG. 4C top)
Method: as §1
(§3) Given the striking differences in response between D481_C7 and D426_G11, we postulated that discrete TCR usage could be associated with ligand discrimination. To test this, an expanded panel of TCR diverse MR1T clones was tested for their ability to recognize each antigen. Every clone responded robustly to APC infected with M. smegmatis (FIG. 4D). […] In contrast, the D481_C7 responded to RL-6-Me-7-OH as well as RL-6,7-diMe, PLI, and PLIII. Because TRAV1-2 negative cells were stained with the hpMR1+EC tetramer, we also tested the ability of a recently described TRAV12-2 MR1T cell clone to respond to these ligands.
as §2

[7] = tested on: MR1T clone D426_G11; experiment: MR1T cell clone D426_G11 responses to synthetic ligands; assay type: cell-based, human; details: FIG. 4C bottom
Method: as §1, §2

[8] = tested on: D481_F12 and D481_A9 MR1T cell clones; experiment: D481_F12 and D481_A9 MR1T cell clone responses to synthetic ligands; assay type: cell-based, human; details: 100 μM ligand (FIG. 4D)
Method: as §3, §2

[9] = tested on: D462_E4 TRAV12-2 MR1T cell clone; experiment: TRAV12-2 MR1T cell clone D462_E4 responses to synthetic ligands; assay type: cell-based, human; details: 100 μM ligand (FIG. 4D)
Method: as §3, §2

MR1, sequence (Q95460 23-341): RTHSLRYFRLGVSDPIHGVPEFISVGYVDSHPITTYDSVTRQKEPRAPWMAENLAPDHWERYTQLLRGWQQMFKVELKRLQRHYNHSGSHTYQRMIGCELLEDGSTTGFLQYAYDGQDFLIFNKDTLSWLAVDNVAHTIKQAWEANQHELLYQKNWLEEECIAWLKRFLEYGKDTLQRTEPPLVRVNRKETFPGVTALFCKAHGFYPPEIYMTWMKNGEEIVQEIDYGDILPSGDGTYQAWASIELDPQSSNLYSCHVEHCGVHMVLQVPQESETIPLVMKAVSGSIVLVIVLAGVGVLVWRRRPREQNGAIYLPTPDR
MR1, sequence (P61769 21-119 partner): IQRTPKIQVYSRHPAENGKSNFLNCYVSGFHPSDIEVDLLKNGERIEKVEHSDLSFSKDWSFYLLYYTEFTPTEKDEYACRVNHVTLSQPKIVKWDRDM
hpMR1, sequence (Q95460 23-201 limits assumed): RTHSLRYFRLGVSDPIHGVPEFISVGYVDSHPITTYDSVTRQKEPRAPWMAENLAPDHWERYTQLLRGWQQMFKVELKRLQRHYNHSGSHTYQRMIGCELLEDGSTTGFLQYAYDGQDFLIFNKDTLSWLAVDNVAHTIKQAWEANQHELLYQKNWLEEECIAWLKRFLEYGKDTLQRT
hpMR1, sequence (C1ITJ8 198-289 limits assumed): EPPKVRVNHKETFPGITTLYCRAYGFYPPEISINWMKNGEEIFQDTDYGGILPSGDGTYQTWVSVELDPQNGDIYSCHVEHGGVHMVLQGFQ

SMILES: O=CC=Nc1c(NC[C@H](O)[C@H](O)[C@H](O)CO)[nH]c(=O)[nH]c1=O [5-OE-RU, 5-(2-oxoethylideneamino)-6-D-ribitylaminouracil]
- presence among ligands eluted from hpMR1 preparations [1]: not found in these hpMR1 preparations

SMILES: Nc1nc2ncc(C=O)nc2c(=O)[nH]1 [6-FP]
- antagonism of MR1T activation [2]: antagonizes MR1T activation

SMILES: Cc1cc2c(=O)[nH]c(=O)[nH]c2nc1C [DZ, 6,7-dimethyl-5-deazalumazine]
- binding to MR1 / MR1 ligand [3]: binds MR1
- ability to stimulate MR1T clones (MR1T cell activation) [4]: activates MR1 restricted T cells

SMILES: O=c1nc2n(C[C@H](O)[C@H](O)[C@H](O)CO)c3cc(O)ccc3cc-2c(=O)[nH]1 [FO]
- binding to MR1 / MR1 ligand [3]: binds MR1; also recorded: confirmed these molecules as novel MR1 ligands
- ability to stimulate MR1T clones (MR1T cell activation) [4]: Neither riboflavin nor FO was capable of MR1T cell activation
- blocking of MR1T clone response to Msm-sup (MAIT cell activation) [5]: blocks the activation of MAIT cells; also recorded: blocked the MR1T clone response to Msm-sup
- antagonist potency relative to riboflavin (amount required to reach 50% inhibition) ([5]; pre-incubation of APC, response to Msm-sup): less FO was required to reach 50% inhibition

SMILES: O=c1nc2n(C[C@H](O)[C@H](O)[C@H](O)CO)c(O)c(-c3c[nH]c4ccccc34)nc-2c(=O)[nH]1 [PLIII]
- binding to MR1 / MR1 ligand [3]: confirmed these molecules as novel MR1 ligands
- binding to MR1 / MR1 ligand ([3]; listed as Photolumazine III): bind MR1
- ability to stimulate MR1T clones (MR1T cell activation) [4]: antigenic
- ability to stimulate MR1T clones (MR1T cell activation) ([4]; listed as Photolumazine III): activated MR1 restricted T cells
- response of clone D481_C7 [6]: responded
- IFN-γ response of clone D481_C7 [6]: potent activating ligands similar to RL-6,7-diMe
- IFN-γ response of clone D426_G11 [7]: only modest responses
- recognition by D481_F12 and D481_A9 MR1T cell clones [8]: modest or no recognition
- response of D462_E4 TRAV12-2 MR1T cell clone [9]: comparable responses to RL-6-Me-7-OH and PLI that were greater than PLIII

SMILES: O=C(O)CCc1nc2c(=O)[nH]c(=O)nc-2n(C[C@H](O)[C@H](O)[C@H](O)CO)c1O [PLI]
- binding to MR1 / MR1 ligand [3]: confirmed these molecules as novel MR1 ligands
- binding to MR1 / MR1 ligand ([3]; listed as Photolumazine I): bind MR1
- ability to stimulate MR1T clones (MR1T cell activation) [4]: antigenic
- ability to stimulate MR1T clones (MR1T cell activation) ([4]; listed as Photolumazine I): activated MR1 restricted T cells
- response of clone D481_C7 [6]: responded
- IFN-γ response of clone D481_C7 [6]: potent activating ligands similar to RL-6,7-diMe
- IFN-γ response of clone D426_G11 [7]: only modest responses
- recognition by D481_F12 and D481_A9 MR1T cell clones [8]: modest or no recognition
- response of D462_E4 TRAV12-2 MR1T cell clone [9]: comparable responses to RL-6-Me-7-OH and PLI that were greater than PLIII
- presence among ligands eluted from hpMR1 preparations [1]: unique to hpMR1+MS

SMILES: Cc1nc2c(=O)[nH]c(=O)nc-2n(C[C@H](O)[C@H](O)[C@H](O)CO)c1C [RL-6,7-diMe, reference compound]
- response of clone D481_C7 [6]: responded
- recognition by D481_F12 and D481_A9 MR1T cell clones [8]: responded
- response of D462_E4 TRAV12-2 MR1T cell clone [9]: did not respond
- presence among ligands eluted from hpMR1 preparations [1]: not found in these hpMR1 preparations

SMILES: Cc1nc2c(=O)[nH]c(=O)nc-2n(C[C@H](O)[C@H](O)[C@H](O)CO)c1O [RL-6-Me-7-OH, reference compound]
- response of clone D481_C7 [6]: responded
- recognition by D481_F12 and D481_A9 MR1T cell clones [8]: modest or no recognition
- response of D462_E4 TRAV12-2 MR1T cell clone [9]: comparable responses to RL-6-Me-7-OH and PLI that were greater than PLIII

SMILES: Cc1cc2nc3c(=O)[nH]c(=O)nc-3n(C[C@H](O)[C@H](O)[C@H](O)CO)c2cc1C [riboflavin, reference compound]
- binding to MR1 / MR1 ligand [3]: confirmed these molecules as novel MR1 ligands
- ability to stimulate MR1T clones (MR1T cell activation) [4]: Neither riboflavin nor FO was capable of MR1T cell activation
- blocking of MR1T clone response to Msm-sup (MAIT cell activation) [5]: blocked the MR1T clone response to Msm-sup
